2 compounds from patent US6830760B2, “Glyburide composition” (Bristol-Myers Squibb Company, priority 2000, dated 2004) can be followed below.

This series is described as follows: Glyburide particle size by laser light scattering / laser diffraction. The format is physicochemical. To be noted: drug substance, laser diffraction particle size analysis. As to the method:
Data from studies with metformin hydrochloride/glyburide tablets formulated with glyburide of different particle size characteristics allowed for the development of a correlation between glyburide particle size and the in vivo performance. The desired particle size distribution may be obtained by sieving or, preferably, air jet milling, and was measured by a laser light scattering method. The particle size measurement method of laser light scattering uses drug substance dispersed in liquid paraffin for introduction into the measurement cell. The apparatus produces a volume based, cumulative size distribution. […] The mill was operated with a Venturi nitrogen pressure of approximately 1.5 atmospheres and a micronization chamber pressure of 4 atmospheres. Size reduction was not allowed to proceed to the extent normally employed to make glyburide that would be described as micronized. The mill was turned off and the drug substance was discharged from it. A sample of the size-reduced glyburide was evaluated by a laser diffraction particle size analysis method.

The structures appear in SMILES notation.

For the compound `COc1ccc(Cl)cc1C(=O)NCCc1ccc(S(=O)(=O)NC(=O)NC2CCCCC2)cc1` [Example 1, 5-chloro-N-[2-[4-[[[(cyclohexylamino)-carbonyl]amino]sulfonyl]phenyl]ethyl]-2-methoxybenzamide], the D25% amounted to 5 microns, the D50% is on record as 9 microns and the D75% is recorded as 21 microns.
On to `COc1ccc(Cl)cc1C(=O)NCCc1ccc(S(=O)(=O)NC(=O)NC2CCCCC2)cc1` [commercially available micronized sample], for which the D25% is 2.8 microns, the D50% worked out at 4.5 microns and the D75% was found to be 7.3 microns.
